The results in this text go back to patent US6916825B2, “Alkylated imidazopyridine derivatives” (Altana Pharma AG, priority 2000, dated 2005).

Data set [1] relates to acid secretion of the perfused rat stomach stimulated by pentagastrin. As to the kind of experiment: Secretion-inhibiting action on perfused rat stomach (pentagastrin-stimulated acid secretion). The class given is in vivo. Conditions: anesthetized CD rats, dose 1 μmol/kg i.v. From the text:
Testing of the Secretion-inhibiting Action on Perfused Rat Stomach
In table A below, the influence of the compounds according to the invention after intravenous administration is shown on the acid secretion of the perfused rat stomach stimulated by pentagastrin.
The abdomen of anesthetized rats (CD rats, female, 200-250 g; 1.5 g/kg of i.m. urethane) was opened after tracheotomy by a median upper abdominal incision and a PVC catheter was fixed transorally in the esophagus and a further one via the pylorus such that the ends of the tubing just still projected into the gastric lumen. The catheter leading from the pylorus led outwards via a side opening in the right abdominal wall.
After thorough rinsing (about 50-100 ml), a continuous flow of warm physiological NaCl solution (0.5 ml/min, pH 6.8-6.9; Braun-Unita I) was continuously passed through the stomach at 37° C. The pH in the effluent, in each case collected at an interval of 15 minutes, was determined (pH meter 632, glass electrode EA 147; φ=5 mm, Metrohm) and the secreted HCl was determined by titration with a freshly prepared 0.01 N NaOH solution to pH 7 (Dosimat 665 Metrohm).
Gastric secretion was stimulated by continuous infusion of 1 μg/kg (=1.65 ml/h) of i.v. pentagastrin (left femoral vein) about 30 min after the end of the operation (i.e. after determination of 2 preliminary fractions). The substances to be tested were administered intravenously in 1 ml/kg of fluid volume 60 min after the start of the pentagastrin continuous infusion.
The body temperature of the animals was kept at a constant 37.8-38° C. by means of infrared irradiation and heating pads (automatic, step-free control via a rectal temperature sensor).

Each structure is given as a SMILES string.

In general, melting point refers to the temperature of the solid-liquid transition. Compound `Cc1nc2c3c(ccn2c1C)[C@@](C)(O)[C@H](O)[C@@H](c1ccccc1)N3` [Example 8, (7R,8R,9R)-2,3,7-Trimethyl-7,8-dihydroxy-9-phenyl-7,8,9,10-tetrahydroimidazo[1,2-h][1,7]-naphthyridine] had a melting point of 137 to 138 °C. Also, the “Inhibition of acid secretion” value in data set [1] was found to be 100%. `C=C1c2ccn3c(C)c(C)nc3c2N[C@H](c2ccccc2)[C@H]1O` [Example 10, (8S,9R)-2,3-Dimethyl-8-hydroxy-7-methylidene-9-phenyl-7,8,9,10-tetrahydroimidazo[1,2-h][1,7]-naphthyridine] displayed a melting point of 199 to 202 °C. The “Inhibition of acid secretion” value in data set [1] is 100%. As for `Cc1nc2c3c(ccn2c1C)[C@@](C)(O)[C@H](O)[C@@H](c1ccccc1)O3` [Example 12, (7R,8R,9R)-2,3,7-Trimethyl-7,8-dihydroxy-9-phenyl-7H-8,9-dihydropyrano[2,3-c]imidazo[1,2-a]-pyridine], the “Inhibition of acid secretion” value in data set [1] is 100%.

With `Cc1nc2c3c(ccn2c1C)[C@@H](O)[C@@](C)(O)[C@@H](c1ccccc1)N3` [Example 2, (7R,8S,9R)-2,3,8-Trimethyl-7,8-dihydroxy-9-phenyl-7,8,9,10-tetrahydroimidazo[1,2-h][1,7]naphthyridine], the melting point amounted to 180 °C. In addition, the “Inhibition of acid secretion” value in data set [1] was 100%.

Take `Cc1nc2c3c(ccn2c1C)C(=O)[C@@](C)(O)[C@@H](c1ccccc1)N3` [Example 1, (8S,9R)-2,3,8-Trimethyl-8-hydroxy-9-phenyl-7,8,9,10-tetrahydroimidazo[1,2-h][1,7]naphthyridin-7-one]: the melting point worked out at 240 °C.

Take `Cc1nc2c3c(ccn2c1C)C(=O)[C@](O)(Cc1ccccc1)[C@@H](c1ccccc1)N3` [Example 3, (8S,9R)-2,3-Dimethyl-8-benzyl-8-hydroxy-9-phenyl-7,8,9,10-tetrahydroimidazo[1,2-h][1,7]naphthyridin-7-one]: the melting point is 248 to 251 °C. In turn, `Cc1nc2c3c(ccn2c1C)[C@H](O)[C@](O)(Cc1ccccc1)[C@@H](c1ccccc1)N3` [Example 4, (7S,8S,9R)-2,3-Dimethyl-8-benzyl-7,8-dihydroxy-9-phenyl-7,8,9,10-tetrahydroimidazo[1,2-h][1,7]-naphthyridine] gave a melting point of 115 to 122 °C. Same read-out and setting: for `CO[C@H]1c2ccn3c(C)c(C)nc3c2N[C@H](c2ccccc2)[C@]1(C)O` [Example 7, (7S,8S,9R)-2,3,8-Trimethyl-7-methoxy-8-hydroxy-9-phenyl-7,8,9,10-tetrahydroimidazo[1,2-h]-[1,7]naphthyridine] the value was 190 °C.
